Reference: patent US7230020B2, “11β-hydroxysteroid dehydrogenase inhibitors” (priority 2003, dated 2007)

Legend:
[1] = biological target: T1, human hepatic microsomal 11β HSD1 (Homo sapiens, UniProt P28845); assay type: biochemical; settings: Lineweaver-Burke plot, 10 μg microsomal protein, 30 min at 37° C., Buffer 1 (FIG. 6); read-out: apparent Km for cortisone
T1 construct: human hepatic microsomes were obtained from XenoTech, product H0610/Lot 0210078; tissue XenoTech H0610/Lot 0210078; host or cells: human liver (hepatic microsomes)
T1 sequence (P28845 whole entry): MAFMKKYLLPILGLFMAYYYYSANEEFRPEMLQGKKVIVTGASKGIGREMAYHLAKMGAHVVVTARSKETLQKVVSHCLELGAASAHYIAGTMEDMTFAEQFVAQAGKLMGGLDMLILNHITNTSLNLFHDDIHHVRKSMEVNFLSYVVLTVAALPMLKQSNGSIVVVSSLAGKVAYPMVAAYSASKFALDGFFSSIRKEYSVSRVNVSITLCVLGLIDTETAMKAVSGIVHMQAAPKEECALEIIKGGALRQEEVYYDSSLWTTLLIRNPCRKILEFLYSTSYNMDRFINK
Protocol: Assay of Human and Rat Hepatic Microsomal 11β-HSD1 Activity using a TLC Separation of Substrate from Product
The assay was carried out in Buffer 2 and the cortisone concentration used was 2 μM containing 0.5 μCi per incubation ^3H-cortisone. Rat and human hepatic microsomes were tested at concentrations ranging from 400 μg to 50 μg microsomal protein per incubation in a final incubation volume of 100 μl in glass tubes. Buffer was substituted for microsomal protein for blanks. Samples were incubated for 1 h in a shaking water bath at 37° C. and the assay was stopped by the addition of 1 ml ethyl acetate. To correct for recovery, 50 μl ^14C-cortisol (approximately 4000 DPM per tube) was added to the samples followed by 200 μl 0.05% CaCl2. […] The upper organic phase was removed into clean tubes and dried down. […] DPM were measured on a TriCarb liquid scintillation counter using a dual label programme. Recovery was determined from the DPM obtained in 50 μl ^14C-cortisol solution which was counted with the samples.
In the next test, the same assay method was followed except that only human hepatic microsomes were examined and the concentration range of these was from 3.7 μg per sample to 100 μg per sample. The samples were incubated for 60 min, 45 min, 30 min or 15 min in a shaking water bath at 37° C. and were stopped, extracted and the substrate and product were separated as detailed above. […]

Human 11β HSD1 = biological target: T2, Human 11β HSD1 (Homo sapiens, UniProt P28845); test: biochemical; assay type: biochemical; settings: Lineweaver-Burke plot, RIA detection, buffer 3, 10 μg/well microsomal protein, 30 min (FIG. 20); read-out: apparent Km
T2 construct: human hepatic microsomes were obtained from XenoTech, product H0610/Lot 0210078; tissue XenoTech H0610/Lot 0210078; host or cells: human liver (hepatic microsomes)
T2 sequence (P28845 whole entry): as above
Protocol: Standard Operating Procedure for the 11β-Hydroxysteroid Dehydrogenase Type 1 cortisol Radioimmunoassay (11β HSD1 Cortisol RIA).
30 mM Tris-HCL, pH 7.2 containing 1 mM EDTA.
50 mM Tris-HCL, pH 8, containing 0.1 M NaCl and 0.1% gelatin.
Prepare 10 mM stock solutions in 100% DMSO at 100 times the required assay concentration. Dilute into assay buffer 1 in 25. Also dilute neat DMSO 1 in 25 into assay buffer for controls.
Dilute this 1 in 50 into assay buffer.
Prepare NADPH as a 1.8 mg/ml solution in assay buffer.
Mix these 3solutions 1:1:1 to make a solution of sufficient volume for 25 μl additions to each sample. Add 0.5 μCi tritiated cortisone per 25 μl and mix the solution well.
Dilute stock 20 mg/ml solution 1 in 100 with assay buffer.
Dilute stock antibody solution to 17 μg/ml in antibody binding buffer.
Make a 20 mg/ml solution in antibody binding buffer and chill on ice.
To a u-bottom polypropylene 96 well plate add: • 25 μl compound dilution or diluted DMSO to controls, NSB's and blanks • 10 μl 1 mM GA in DMSO (enzyme stop solution) to blanks • 25 μl substrate mixture to all samples • 50 μl diluted microsomes to all samples • Incubate plate for 30 min at 37° C. shaking p0 Add 10 μl enzyme stop solution to all wells except the blanks • Add 100 μl antibody solution to all wells except the NSB's, add antibody binding buffer to these wells • Incubate at 37° C. for 1 h • Chill plate on ice for 15 min • Add 50 μl/well charcoal solution and mix with an 8-channel pipette (4-5 aspirations) • Chill the plate on ice • Centrifuge at 4° C., 2000×g for 15 min • Transfer 100 μl supernatant into an Optiplate, also add 25 μl substrate mixture to 2 empty wells to indicate counting efficiency • Add 200 μl Microscint-40 to all wells and count on a Topcount Radioimmunoassay
The 11β HSD1 enzyme assay was carried out following the standard operating procedure described above in u-bottom polypropylene 96 well plates or 1.5 ml Eppendorf tubes as indicated for each experiment. Subsequent to stopping the enzyme reaction, 100 μl antibody prepared in buffer 3 unless otherwise indicated was added to test samples and 100 μl buffer 3 was added to the NSB samples. The samples were incubated for 1 hour at 37° C. and the chilled on ice for 15 mins. Dextran coated charcoal (50 μl/sample) prepared to the indicated concentration in buffer 3 was added and the samples were mixed (vortex for tubes and aspiration 5 times with an 8-channel pipette for 96 well plates) and chilled for a further 10 min. The samples were centrifuged at 2000×g for 15 min at 4° C. to pellet the charcoal. Aliquots of the supernatant (100 μl) were transferred to an Optiplate and counted on the Topcount in 150-200 μl Microscint 40. In some experiments, aliquots of supernatant were transferred to scintillation vials and counted on the Tricarb LSC in 5 ml Ultima Gold scintillant.

| melting point [°C] | Compound | Km [1] [µM] | Km (Human 11β HSD1) [µM] |
| --- | --- | --- | --- |
| 270 to 270.3 | CC1Nc2ccc(NC(=O)c3ccc(-c4ccccc4)cc3)cc2N1C (stereo not shown) |  |  |
| 275 to 277 | Cc1nc2cc(NC(=O)c3ccc(Cl)cc3Cl)ccc2n1C |  |  |
| 252 to 253 | Cc1nc2c(Cl)c(NC(=O)c3cc(Cl)cc(Cl)c3)ccc2s1 |  |  |
| 175 | Cc1nc2c(Cl)c(NC(=O)c3cc(Cl)ccc3Cl)ccc2s1 |  |  |
| 177 to 179 | COc1cccc(C(=O)Nc2ccc3sc(C)nc3c2Cl)c1 |  |  |
| 147 to 148 | COc1cccc(CC(=O)Nc2ccc3sc(C)nc3c2Cl)c1 |  |  |
| 227 to 229 | Cc1nc2c(Cl)c(NC(=O)Cc3ccc(Cl)cc3)ccc2s1 |  |  |
| 164 to 166 | O=C(NCCc1cccs1)c1ccc(-c2ccccc2)cc1 |  |  |
| 100 to 102 | O=C(NCCc1cccs1)c1cc(Cl)cc(Cl)c1 |  |  |
| 217 to 219 | O=C(Nc1ccc2c(c1)CCC2=O)c1ccc(-c2ccccc2)cc1 |  |  |
| 181 to 184 | CCCc1ccc(C(=O)Nc2ccc3c(c2)CCC3=O)cc1 |  |  |
| 203 to 204 | COc1cccc(C(=O)Nc2ccc3c(c2)CCC3=O)c1 |  |  |
| 150 to 153 | O=C(c1ccccc1)c1ccc(NC(=O)c2cc(Cl)ccc2Cl)cc1 |  |  |
| 171 to 174 | COc1ccc(C(=O)Nc2ccc(C(=O)c3ccccc3)cc2)cc1 |  |  |
| 168 to 170 | CCCc1ccc(C(=O)Nc2ccc3c(c2)CCCC3=O)cc1 |  |  |
|  | C[C@]12CCC(=O)C=C1CC[C@@H]1[C@@H]2C(=O)C[C@@]2(C)[C@H]1CC[C@]2(O)C(=O)CO [cortisone, Cortisone] | 0.66 | 0.7 |

| Compound | melting point [°C] | Km [1] [µM] | Km (Human 11β HSD1) [µM] |
| --- | --- | --- | --- |
| Cc1nc2cc(NC(=O)c3cc(Cl)cc(Cl)c3)ccc2s1 | 194 |  |  |
| CCCc1ccc(S(=O)(=O)NCc2ccccn2)cc1 | 109 |  |  |
